Assay results taken from ChEMBL document CHEMBL4190294, “Design, synthesis and antiproliferative activity of decarbonyl luotonin analogues” (Eur J Med Chem, 2017).
Active and inactive are the calls of the source. The calls are words filed in the database; no cut-off is given here.

How the values were obtained:
KB [1] = experiment: Cytotoxicity against human KB cells assessed as reduction in cell viability after 72 hrs by MTT assay; type: functional, cell-based
MDA-MB-231 = experiment: Cytotoxicity against human MDA-MB-231 cells assessed as reduction in cell viability after 72 hrs by MTT assay; type: functional, cell-based; settings: MDA-MB-231, 72 h
[2] = target: T1, DNA topoisomerase 1 (Homo sapiens) (UniProt P11387); experiment: Inhibition of human topoisomerase-1 expressed in baculovirus infected insect cells at 80 uM using supercoiled pGEM-5Zf(+) plasmid DNA as substrate after 30 mins by agarose gel electrophoresis method
T1 sequence (whole entry): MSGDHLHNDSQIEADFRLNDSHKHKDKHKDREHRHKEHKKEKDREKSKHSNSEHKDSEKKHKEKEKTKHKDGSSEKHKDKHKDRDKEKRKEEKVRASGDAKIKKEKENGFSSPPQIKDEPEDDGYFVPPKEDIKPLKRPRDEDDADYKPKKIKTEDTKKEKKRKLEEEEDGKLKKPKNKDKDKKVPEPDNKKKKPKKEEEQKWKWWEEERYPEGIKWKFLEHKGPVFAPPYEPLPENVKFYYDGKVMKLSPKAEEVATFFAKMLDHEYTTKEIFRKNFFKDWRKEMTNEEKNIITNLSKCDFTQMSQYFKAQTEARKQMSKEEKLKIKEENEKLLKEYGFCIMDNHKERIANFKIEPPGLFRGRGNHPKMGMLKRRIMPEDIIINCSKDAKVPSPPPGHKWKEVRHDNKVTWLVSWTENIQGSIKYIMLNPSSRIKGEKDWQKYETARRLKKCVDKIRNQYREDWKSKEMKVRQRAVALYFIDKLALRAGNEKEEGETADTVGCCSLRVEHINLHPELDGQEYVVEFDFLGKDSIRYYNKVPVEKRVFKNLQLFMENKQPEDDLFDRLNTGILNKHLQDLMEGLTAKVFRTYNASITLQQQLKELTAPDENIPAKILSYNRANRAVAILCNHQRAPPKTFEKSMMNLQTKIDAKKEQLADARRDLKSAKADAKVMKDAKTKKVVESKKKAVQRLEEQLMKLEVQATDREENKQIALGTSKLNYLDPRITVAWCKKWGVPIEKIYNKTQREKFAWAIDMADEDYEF

LNCaP = experiment: Cytotoxicity against human LNCAP cells assessed as reduction in cell viability after 72 hrs by MTT assay; type: functional, cell-based
HT-1080 = experiment: Cytotoxicity against human HT1080 cells assessed as reduction in cell viability after 72 hrs by MTT assay; type: functional, cell-based; settings: HT-1080, 72 h
KB [3] = experiment: Cytotoxicity against human KB cells assessed as reduction in cell viability at 12.5 uM after 72 hrs by MTT assay; type: functional, cell-based

With Brc1cccc2cc3c(nc12)-c1nc2ccccc2n1C3 the IC50 (KB [1]) was 15.3 µM, the IC50 (MDA-MB-231) was 11.3 µM and the inhibition [2] was “Active”. For the same molecule, the IC50 (LNCaP) was 8.4 µM and the IC50 (HT-1080) was 66 µM.
For c1ccc2nc3c(cc2c1)Cn1c-3nc2ccccc21, the IC50 (KB [1]) was 10.9 µM, the IC50 (MDA-MB-231) was 12 µM and the inhibition [2] was “Active”. The IC50 (LNCaP) was 11.3 µM and the IC50 (HT-1080) was 52.9 µM.
For Cc1ccc2cc3c(nc2c1)-c1nc2ccccc2n1C3, the IC50 (KB [1]) was 75 µM, the IC50 (MDA-MB-231) was greater than 100 µM and the inhibition [2] was “Active”. It also gave an IC50 (LNCaP) of 39 µM and an IC50 (HT-1080) of 8.7 µM.
O=c1c2ccccc2nc2n1Cc1cc3ccccc3nc1-2 was tested, and the Activity (KB [3]) was “Active”.
In the case of COc1ccc2cc3c(nc2c1)-c1nc2ccccc2n1C3, the IC50 (KB [1]) is reported as 40.6 µM, the IC50 (MDA-MB-231) is reported as greater than 100 µM and the inhibition [2] is reported as “Active”. The IC50 (LNCaP) was 25 µM and the IC50 (HT-1080) was 95 µM.
Clc1cccc2cc3c(nc12)-c1nc2ccccc2n1C3 was tested, and the Activity (KB [3]) was “Active”, the IC50 (KB [1]) was 11.5 µM and the IC50 (MDA-MB-231) was 69 µM. The IC50 (LNCaP) was 24 µM and the IC50 (HT-1080) was 28.7 µM.
In the case of Cc1ccc2nc3c(cc2c1)Cn1c-3nc2ccccc21, the IC50 (KB [1]) is reported as 11.3 µM, the IC50 (MDA-MB-231) is reported as greater than 100 µM and the inhibition [2] is reported as “Active”. It also gave an IC50 (LNCaP) of 62.5 µM and an IC50 (HT-1080) of 9.3 µM.
With COc1cccc2cc3c(nc12)-c1nc2ccccc2n1C3 the IC50 (KB [1]) was 16.9 µM, the IC50 (MDA-MB-231) was greater than 100 µM and the inhibition [2] was “Active”. For the same molecule, the IC50 (LNCaP) was 20 µM and the IC50 (HT-1080) was greater than 100 µM.
Cc1cccc2cc3c(nc12)-c1nc2ccccc2n1C3 was tested, and the IC50 (KB [1]) was 20 µM, the IC50 (MDA-MB-231) was greater than 100 µM and the inhibition [2] was “Active”. The IC50 (LNCaP) was 23.8 µM and the IC50 (HT-1080) was greater than 100 µM.
In the case of COc1ccc2nc3c(cc2c1)Cn1c-3nc2ccccc21, the IC50 (KB [1]) is reported as 20 µM, the IC50 (MDA-MB-231) is reported as greater than 100 µM and the inhibition [2] is reported as “Active”. For the same molecule, the IC50 (LNCaP) was 24.7 µM and the IC50 (HT-1080) was 52.3 µM.
